Like-named read-outs stand apart in the source and are kept apart here.
Biological target: T1, BRM (Homo sapiens, UniProt P51531)
T1 construct: In-Cell Western Screen of BRM Degradation in SW1573 Cells; endogenous in cells; host or cells: SW1573
Test: In-cell Western screen of BRM degradation in SW1573 cells (Dmax and DC50)
Assay type: cell-based
Outline: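 Overnight compound treatment (18-20 h, final DMSO 0.1%) of SW1573 cells in DMEM with 10% FBS precedes fixation and in-cell Western staining with 800/680 nm dye-labelled secondaries. Plate images give DC50 and maximal degradation.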

[1] = BRM degradation, SW1573 cells, read-out: DC50
[2] = BRM degradation, SW1573 cells, when tested at the top concentration of between 0.3 and 10 μM, read-out: Dmax (%) (% degraded)
[3] = BRM degradation, SW1573 cells, tested at the top concentration of between 0.3 and 10 μM, read-out: Dmax (%) (% degraded)
[4] = degradation of BRM, read-out: BRM DC50
[5] = SW1573, % degraded, when tested at the top concentration of between 0.3 and 10 μM, read-out: BRM Dmax (%)
[6] = BRM degradation, read-out: BRM DC50
[7] = target protein degradation, read-out: BRM DC50

T1 sequence (P51531 whole entry): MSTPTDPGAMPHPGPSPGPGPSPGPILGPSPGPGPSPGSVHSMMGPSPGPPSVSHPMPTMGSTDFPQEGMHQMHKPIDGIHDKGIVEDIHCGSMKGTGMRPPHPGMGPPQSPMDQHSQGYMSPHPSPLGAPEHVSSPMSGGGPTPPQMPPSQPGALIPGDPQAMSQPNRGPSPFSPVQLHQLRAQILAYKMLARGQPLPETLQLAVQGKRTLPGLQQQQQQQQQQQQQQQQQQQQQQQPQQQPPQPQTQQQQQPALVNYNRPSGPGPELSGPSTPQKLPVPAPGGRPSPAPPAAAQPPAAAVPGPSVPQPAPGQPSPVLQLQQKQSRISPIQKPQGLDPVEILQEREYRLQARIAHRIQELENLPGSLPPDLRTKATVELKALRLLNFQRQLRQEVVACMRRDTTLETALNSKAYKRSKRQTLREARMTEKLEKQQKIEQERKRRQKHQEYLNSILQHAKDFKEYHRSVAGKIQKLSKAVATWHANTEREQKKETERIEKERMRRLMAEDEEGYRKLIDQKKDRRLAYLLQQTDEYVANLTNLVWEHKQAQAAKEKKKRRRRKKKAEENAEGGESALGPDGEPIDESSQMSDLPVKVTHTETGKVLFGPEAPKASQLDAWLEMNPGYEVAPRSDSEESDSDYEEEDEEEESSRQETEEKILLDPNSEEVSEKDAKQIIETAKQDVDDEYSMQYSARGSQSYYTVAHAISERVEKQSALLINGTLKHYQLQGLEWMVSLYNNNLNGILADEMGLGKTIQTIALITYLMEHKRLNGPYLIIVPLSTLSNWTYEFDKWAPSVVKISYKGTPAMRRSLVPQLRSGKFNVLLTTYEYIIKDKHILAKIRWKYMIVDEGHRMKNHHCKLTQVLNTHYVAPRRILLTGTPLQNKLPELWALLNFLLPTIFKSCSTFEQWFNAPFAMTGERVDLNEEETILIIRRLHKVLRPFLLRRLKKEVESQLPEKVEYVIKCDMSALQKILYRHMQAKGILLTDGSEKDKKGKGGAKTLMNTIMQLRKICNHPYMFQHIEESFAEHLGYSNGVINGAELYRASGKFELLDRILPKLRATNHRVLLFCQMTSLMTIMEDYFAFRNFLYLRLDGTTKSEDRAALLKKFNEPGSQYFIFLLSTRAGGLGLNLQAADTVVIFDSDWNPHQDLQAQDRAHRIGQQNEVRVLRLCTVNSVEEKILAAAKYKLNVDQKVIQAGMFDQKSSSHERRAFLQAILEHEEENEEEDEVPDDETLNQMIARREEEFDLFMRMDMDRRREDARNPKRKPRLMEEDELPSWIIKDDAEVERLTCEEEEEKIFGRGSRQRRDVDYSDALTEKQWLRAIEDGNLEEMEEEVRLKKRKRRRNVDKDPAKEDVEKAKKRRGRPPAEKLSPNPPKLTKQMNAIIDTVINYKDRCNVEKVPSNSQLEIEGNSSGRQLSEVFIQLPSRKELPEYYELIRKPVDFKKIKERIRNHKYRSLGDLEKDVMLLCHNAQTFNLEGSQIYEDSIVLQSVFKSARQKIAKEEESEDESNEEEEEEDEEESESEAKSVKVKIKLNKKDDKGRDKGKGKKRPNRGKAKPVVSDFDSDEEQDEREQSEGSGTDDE

SMILES: Cc1ncsc1-c1ccc(CNC(=O)[C@@H]2C[C@@H](O)CN2C(=O)[C@@H](NC(=O)COCCOCCOCCOCCOCCn2cc(-c3cc(-c4ccccc4O)nnc3N)cn2)C(C)(C)C)cc1 [compound 4, (2S,4R)-1-((S)-20-(4-(3-amino-6-(2-hydroxyphenyl)pyridazin-4-yl)-1H-pyrazol-1-yl)-2-(tert-butyl)-4-oxo-6,9,12,15,18-pentaoxa-3-azaicosanoyl)-4-hydroxy-N-(4-(4-methylthiazol-5-yl)benzyl)pyrrolidine-2-carboxamide]
- DC50 [1]: > 0.03 µM
- Dmax [2]: > 75%

SMILES: Cc1ncsc1-c1ccc(CNC(=O)[C@@H]2C[C@@H](O)CN2C(=O)[C@H](c2cc(OCC#Cc3ccc(O[C@H]4C[C@H](Oc5cc(N6C7CCC6CN(c6cc(-c8ccccc8O)nnc6N)C7)ccn5)C4)cn3)no2)C(C)C)cc1 [compound 220, (2S,4R)-1-((2S)-2-(3-((3-(5-((1r,3S)-3-((4-(3-(3-amino-6-(2-hydroxyphenyl)pyridazin-4-yl)-3,8-diazabicyclo[3.2.1]octan-8-yl)pyridin-2-yl)oxy)cyclobutoxy)pyridin-2-yl)prop-2-yn-1-yl)oxy)isoxazol-5-yl)-3-methylbutanoyl)-4-hydroxy-N-(4-(4-methylthiazol-5-yl)benzyl)pyrrolidine-2-carboxamide]
- DC50 [1]: 0.01 to 0.03 µM
- Dmax [3]: > 75%

SMILES: Cc1cc([C@@H](C(=O)N2C[C@H](O)C[C@H]2C(=O)N[C@@H](C)c2ccc(-c3scnc3C)cc2)[C@H](C)COCCCCN2C3CCC2CN(c2cc(-c4ccccc4O)nnc2N)C3)on1 [compound 424, (2S,4R)-1-((2S,3S)-4-(4-(3-(3-amino-6-(2-hydroxyphenyl)pyridazin-4-yl)-3,8-diazabicyclo[3.2.1]octan-8-yl)butoxy)-3-methyl-2-(3-methylisoxazol-5-yl)butanoyl)-4-hydroxy-N-((S)-1-(4-(4-methylthiazol-5-yl)phenyl)ethyl)pyrrolidine-2-carboxamide]
- DC50 [4]: > 0.03 µM

SMILES: Cc1cc([C@@H](C(=O)N2C[C@H](O)C[C@H]2C(=O)N[C@@H](C)c2ccc(-c3scnc3C)cc2)[C@@H](C)COCCCCOc2cc(N3C4CCC3CN(c3cc(-c5ccccc5O)nnc3N)C4)ccn2)on1 [compound 431, (2S,4R)-1-((2S,3R)-4-(4-((4-(3-(3-amino-6-(2-hydroxyphenyl)pyridazin-4-yl)-3,8-diazabicyclo[3.2.1]octan-8-yl)pyridin-2-yl)oxy)butoxy)-3-methyl-2-(3-methylisoxazol-5-yl)butanoyl)-4-hydroxy-N-((S)-1-(4-(4-methylthiazol-5-yl)phenyl)ethyl)pyrrolidine-2-carboxamide]
- Dmax [5]: > 75%
- DC50 [4]: < 0.0025 µM

SMILES: Cc1ncsc1-c1ccc([C@H](C)NC(=O)[C@@H]2C[C@@H](O)CN2C(=O)[C@@H](c2cc(OCCN3CCN(CCOc4cc(N5C6CCC5CN(c5cc(-c7ccccc7O)nnc5N)C6)ccn4)[C@H](C)C3)no2)C(C)C)cc1 [compound 139, (2S,4R)-1-((2R)-2-(3-(2-((3R)-4-(2-((4-(3-(3-amino-6-(2-hydroxyphenyl)pyridazin-4-yl)-3,8-diazabicyclo[3.2.1]octan-8-yl)pyridin-2-yl)oxy)ethyl)-3-methylpiperazin-1-yl)ethoxy)isoxazol-5-yl)-3-methylbutanoyl)-4-hydroxy-N-((S)-1-(4-(4-methylthiazol-5-yl)phenyl)ethyl)pyrrolidine-2-carboxamide]
- DC50 [1]: < 0.0025 µM
- Dmax [2]: > 75%

SMILES: Cc1cc([C@H](C(=O)N2C[C@H](O)C[C@H]2C(=O)N[C@@H](COCCOCCNc2ccc(-c3ccccc3O)nn2)c2ccc(-c3scnc3C)cc2)C(C)C)on1 [compound 526, (2S,4R)-4-hydroxy-N-((R)-2-(2-(2-((6-(2-hydroxyphenyl)pyridazin-3-yl)amino)ethoxy)ethoxy)-1-(4-(4-methylthiazol-5-yl)phenyl)ethyl)-1-((R)-3-methyl-2-(3-methylisoxazol-5-yl)butanoyl)pyrrolidine-2-carboxamide]
- DC50 [6]: > 0.03 µM

SMILES: Cc1ncsc1-c1ccc([C@@H](COCC2CCOCC2)NC(=O)[C@@H]2C[C@@H](O)CN2C(=O)[C@@H](c2cc(OCCN3CCN(CCOc4cc(N5C6CCC5CN(c5cc(-c7ccccc7O)nnc5N)C6)ccn4)CC3)no2)C(C)C)cc1 [compound 273, (2S,4R)-1-((2R)-2-(3-(2-(4-(2-((4-(3-(3-amino-6-(2-hydroxyphenyl)pyridazin-4-yl)-3,8-diazabicyclo[3.2.1]octan-8-yl)pyridin-2-yl)oxy)ethyl)piperazin-1-yl)ethoxy)isoxazol-5-yl)-3-methylbutanoyl)-4-hydroxy-N-((S)-1-(4-(4-methylthiazol-5-yl)phenyl)-2-((tetrahydro-2H-pyran-4-yl)methoxy)ethyl)pyrrolidine-2-carboxamide]
- DC50 [1]: < 0.0025 µM
- Dmax [3]: > 75%

SMILES: Cc1ncsc1-c1ccc([C@H](C)NC(=O)[C@@H]2C[C@@H](O)CN2C(=O)[C@H](c2cc(OCCN3CCC(O[C@H]4C[C@H](Oc5cc(N6C7CCC6CN(c6cc(-c8ccccc8O)nnc6N)C7)ccn5)C4)CC3)no2)C(C)C)cc1F [compound 252, (2S,4R)-1-((2S)-2-(3-(2-(4-((1r,3S)-3-((4-(3-(3-amino-6-(2-hydroxyphenyl)pyridazin-4-yl)-3,8-diazabicyclo[3.2.1]octan-8-yl)pyridin-2-yl)oxy)cyclobutoxy)piperidin-1-yl)ethoxy)isoxazol-5-yl)-3-methylbutanoyl)-N-((S)-1-(3-fluoro-4-(4-methylthiazol-5-yl)phenyl)ethyl)-4-hydroxypyrrolidine-2-carboxamide]
- DC50 [1]: > 0.03 µM
- Dmax [3]: > 75%

SMILES: Cc1ncsc1-c1ccc([C@H](C)NC(=O)[C@@H]2C[C@@H](O)CN2C(=O)[C@H](c2cc(N3CC(CN4CC(COc5cc(N6C7CCC6CN(c6cc(-c8ccccc8O)nnc6N)C7)ccn5)C4)C3)no2)C(C)C)cc1 [compound 518, (2S,4R)-1-((2S)-2-(3-(3-((3-(((4-(3-(3-amino-6-(2-hydroxyphenyl)pyridazin-4-yl)-3,8-diazabicyclo[3.2.1]octan-8-yl)pyridin-2-yl)oxy)methyl)azetidin-1-yl)methyl)azetidin-1-yl)isoxazol-5-yl)-3-methylbutanoyl)-4-hydroxy-N-((S)-1-(4-(4-methylthiazol-5-yl)phenyl)ethyl)pyrrolidine-2-carboxamide]
- DC50 [6]: > 0.03 µM

SMILES: Cc1ncsc1-c1ccc([C@H](C)NC(=O)[C@@H]2C[C@@H](O)CN2C(=O)[C@H](c2cc(OCCC#Cc3ccc(OC4CC(Oc5cc(N6C7CC[C@@H]6CN(c6cc(-c8ccccc8O)nnc6N)C7)ccn5)C4)cn3)no2)C(C)C)cc1 (stereo partly drawn) [compound 226, (2S,4R)-1-((2S)-2-(3-((4-(5-((1r,3r)-3-((4-(3-(3-amino-6-(2-hydroxyphenyl)pyridazin-4-yl)-3,8-diazabicyclo[3.2.1]octan-8-yl)pyridin-2-yl)oxy)cyclobutoxy)pyridin-2-yl)but-3-yn-1-yl)oxy)isoxazol-5-yl)-3-methylbutanoyl)-4-hydroxy-N-((S)-1-(4-(4-methylthiazol-5-yl)phenyl)ethyl)pyrrolidine-2-carboxamide]
- DC50 [1]: 0.01 to 0.03 µM
- Dmax (%) (% degraded) (BRM degradation, SW1573 cells, tested at the top concentration of between 0.3 and 10 μM): A (A > 75)

SMILES: Cc1ncsc1-c1ccc([C@H](C)NC(=O)[C@@H]2C[C@@H](O)CN2C(=O)[C@@H](c2cc(OCC#Cc3ncc(O[C@H]4C[C@H](Oc5cc(N6C7CCC6CN(c6cc(-c8ccccc8O)nnc6N)C7)ccn5)C4)cn3)no2)C(C)C)cc1 [compound 232, (2S,4R)-1-((2R)-2-(3-((3-(5-((1r,3R)-3-((4-(3-(3-amino-6-(2-hydroxyphenyl)pyridazin-4-yl)-3,8-diazabicyclo[3.2.1]octan-8-yl)pyridin-2-yl)oxy)cyclobutoxy)pyrimidin-2-yl)prop-2-yn-1-yl)oxy)isoxazol-5-yl)-3-methylbutanoyl)-4-hydroxy-N-((S)-1-(4-(4-methylthiazol-5-yl)phenyl)ethyl)pyrrolidine-2-carboxamide]
- DC50 [1]: < 0.0025 µM
- Dmax [3]: > 75%

SMILES: Cc1ncsc1-c1ccc([C@H](C)NC(=O)[C@@H]2C[C@@H](O)CN2C(=O)[C@H](c2cc(OCC#CC34CC(CNC5CC(Oc6cc(N7C8CC[C@@H]7CN(c7cc(-c9ccccc9O)nnc7N)C8)ccn6)C5)(C3)C4)no2)C(C)C)cc1 (stereo partly drawn) [compound 381, (2S,4R)-1-((2S)-2-(3-((3-(3-((((1r,3S)-3-((4-(3-(3-amino-6-(2-hydroxyphenyl)pyridazin-4-yl)-3,8-diazabicyclo[3.2.1]octan-8-yl)pyridin-2-yl)oxy)cyclobutyl)amino)methyl)bicyclo[1.1.1]pentan-1-yl)prop-2-yn-1-yl)oxy)isoxazol-5-yl)-3-methylbutanoyl)-4-hydroxy-N-((S)-1-(4-(4-methylthiazol-5-yl)phenyl)ethyl)pyrrolidine-2-carboxamide]
- BRM Dmax (%) (% degraded, when tested at the top concentration of between 0.3 and 10 μM): A (A > 75)
- DC50 [7]: 0.01 to 0.03 µM

SMILES: Cc1ncsc1-c1ccc([C@H](C)NC(=O)[C@@H]2C[C@@H](O)CN2C(=O)[C@@H](c2cc(OCCN3CCC(O[C@H]4C[C@H](Oc5cnnc(N6C7CCC6CN(c6cc(-c8ccccc8O)nnc6N)C7)c5)C4)CC3)no2)C(C)C)cc1 [compound 471, (2S,4R)-1-((2R)-2-(3-(2-(4-((1r,3R)-3-((6-(3-(3-amino-6-(2-hydroxyphenyl)pyridazin-4-yl)-3,8-diazabicyclo[3.2.1]octan-8-yl)pyridazin-4-yl)oxy)cyclobutoxy)piperidin-1-yl)ethoxy)isoxazol-5-yl)-3-methylbutanoyl)-4-hydroxy-N-((S)-1-(4-(4-methylthiazol-5-yl)phenyl)ethyl)pyrrolidine-2-carboxamide]
- Dmax [5]: > 75%
- DC50 [7]: < 0.0025 µM

Source: US12539292B2, “BRM targeting compounds and associated methods of use” (Arvinas Operations, Inc., priority 2018, dated 2026)
